Series [1] concerns the target T1, GlAgo (Giardia Argonaute) (Giardia duodenalis, UniProt A8BCK6).
T1 construct: gene Ago; full-length ORF from Giardia genomic DNA in pET28b, His-tagged (C-terminal His6 encoded by reverse primer), expressed in E. coli BL21(DE3) with chaperones, Ni-NTA purified; strain WB is printed for the trophozoites used, not for the cloning DNA
T1 sequence (A8BCK6 1-900): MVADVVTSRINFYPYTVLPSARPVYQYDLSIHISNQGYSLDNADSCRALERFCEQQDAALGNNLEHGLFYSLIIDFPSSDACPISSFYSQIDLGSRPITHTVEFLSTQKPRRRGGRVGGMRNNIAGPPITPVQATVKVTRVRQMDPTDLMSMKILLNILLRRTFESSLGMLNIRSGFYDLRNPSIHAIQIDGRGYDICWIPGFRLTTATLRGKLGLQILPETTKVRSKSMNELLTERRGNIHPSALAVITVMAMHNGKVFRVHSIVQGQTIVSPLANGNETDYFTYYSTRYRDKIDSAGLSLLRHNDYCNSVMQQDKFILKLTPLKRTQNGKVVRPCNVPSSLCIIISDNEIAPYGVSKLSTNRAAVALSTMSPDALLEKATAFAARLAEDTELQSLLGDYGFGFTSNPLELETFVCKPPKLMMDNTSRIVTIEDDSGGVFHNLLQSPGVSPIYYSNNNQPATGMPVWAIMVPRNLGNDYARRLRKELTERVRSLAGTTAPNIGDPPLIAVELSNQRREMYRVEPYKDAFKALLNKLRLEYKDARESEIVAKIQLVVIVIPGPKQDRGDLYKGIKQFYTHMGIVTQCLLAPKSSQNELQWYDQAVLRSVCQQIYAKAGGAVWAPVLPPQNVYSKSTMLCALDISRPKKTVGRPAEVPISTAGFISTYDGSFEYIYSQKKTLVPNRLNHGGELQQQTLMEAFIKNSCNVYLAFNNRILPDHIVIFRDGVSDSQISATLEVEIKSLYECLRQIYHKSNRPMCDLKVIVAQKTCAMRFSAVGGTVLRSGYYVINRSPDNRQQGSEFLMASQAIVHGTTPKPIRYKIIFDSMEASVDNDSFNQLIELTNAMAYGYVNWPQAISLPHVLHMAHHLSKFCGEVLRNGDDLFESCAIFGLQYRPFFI
In words: m7GpppG-Sepharose affinity retention, elution with free m7GpppG, anti-His Western blot. The series is classed as binding. To be noted: 20 mM HEPES pH 7.4, 150 mM KCl, 1 mM EDTA, 2 mM DTT; washed with 0.1 mM GTP, eluted with 0.1 mM m7GpppG.

Series [2] deals with T2, GlAgo (Giardia Argonaute) (Giardia lamblia, UniProt A8BCK6 1-900).
T2 sequence: T1 sequence (A8BCK6 1-900)
Put plainly: EMSA; 10 ng miR2; competed by unlabeled miR2 and by yeast RNA (no sequence specificity); EMSA: native 6% polyacrylamide gel, 10 ng radiolabeled miR2; binding buffer, pH and temperature not given in the material. To be noted: protein: recombinant; tags: C-terminal 6xHis (encoded in reverse primer S6); single strand.

On to `C[n+]1cn([C@@H]2O[C@H](COP(=O)(O)OP(=O)(O)OP(=O)(O)OC[C@H]3O[C@@H](n4cnc5c(=O)[nH]c(N)nc54)[C@H](O)[C@@H]3O)[C@@H](O)[C@H]2O)c2nc(N)[nH]c(=O)c21` [m^7GpppG], for which the “m7GpppG-Sepharose affinity retention, elution with free m7GpppG, anti-His Wester” value in series [1] was “the protein was specifically eluted off the Sepharose beads with m^7GpppG”.

B1: miR2 (ssRNA)
RNA: CAGCCUAAUCACCGCCCCUAUAGUCC
Regarding B1, the binding result in series [2] was “binds”.

These data come from publication PMC2583053, “snoRNA, a Novel Precursor of microRNA in Giardia lamblia” (PLoS Pathogens, 2008).
